The text below walks through data of patent US7018639B1, “Vaccine antigens of Moraxella” (Commonwealth Scientific and Industrial Research Organisation, priority 1999, dated 2006).

In the assay the test system is M. bovis protease. In kind it is biochemical, Moraxella bovis. The settings on record: 37° C.

Turning to `O=S(=O)(F)Cc1ccccc1` [PMSF, phenylmethylsulfonyl fluoride], the “protease activity after inhibitor” value is on record as “zero”.
